From ChEMBL document CHEMBL5653615 (J Biol Chem, 2013)
One block for each compound: values may come before it.

What was measured:
[1] = target: T1, Protein kinase C zeta type (Homo sapiens) (UniProt Q05513); assay: Inhibition of human PKCzeta at 500 nM by HotSpot assay relative to control
T1 sequence (whole entry): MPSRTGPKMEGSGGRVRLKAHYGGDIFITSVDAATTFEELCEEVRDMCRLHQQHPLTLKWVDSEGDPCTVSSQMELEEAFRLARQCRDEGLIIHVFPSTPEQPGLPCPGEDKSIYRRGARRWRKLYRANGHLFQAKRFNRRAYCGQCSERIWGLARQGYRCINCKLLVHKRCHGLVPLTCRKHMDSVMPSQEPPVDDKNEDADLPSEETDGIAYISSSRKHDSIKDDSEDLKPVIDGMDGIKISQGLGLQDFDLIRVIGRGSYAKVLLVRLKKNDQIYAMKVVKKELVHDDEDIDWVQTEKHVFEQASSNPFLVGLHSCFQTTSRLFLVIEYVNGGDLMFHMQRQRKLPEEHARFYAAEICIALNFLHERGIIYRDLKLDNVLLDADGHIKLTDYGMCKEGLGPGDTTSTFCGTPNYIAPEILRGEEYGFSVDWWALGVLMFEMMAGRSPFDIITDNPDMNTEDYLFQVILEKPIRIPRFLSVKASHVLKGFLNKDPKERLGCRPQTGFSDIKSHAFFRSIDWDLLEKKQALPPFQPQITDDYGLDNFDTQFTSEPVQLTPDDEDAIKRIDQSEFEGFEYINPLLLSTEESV

[2] = target: PAS domain-containing serine/threonine-protein kinase (Homo sapiens) (UniProt Q96RG2); assay: Inhibition of human PASK at 18.6 nM by HotSpot assay relative to control
Chain of PAS domain-containing serine/threonine-protein kinase (Homo sapiens) (Q96RG2 whole entry, the tested form may be a part): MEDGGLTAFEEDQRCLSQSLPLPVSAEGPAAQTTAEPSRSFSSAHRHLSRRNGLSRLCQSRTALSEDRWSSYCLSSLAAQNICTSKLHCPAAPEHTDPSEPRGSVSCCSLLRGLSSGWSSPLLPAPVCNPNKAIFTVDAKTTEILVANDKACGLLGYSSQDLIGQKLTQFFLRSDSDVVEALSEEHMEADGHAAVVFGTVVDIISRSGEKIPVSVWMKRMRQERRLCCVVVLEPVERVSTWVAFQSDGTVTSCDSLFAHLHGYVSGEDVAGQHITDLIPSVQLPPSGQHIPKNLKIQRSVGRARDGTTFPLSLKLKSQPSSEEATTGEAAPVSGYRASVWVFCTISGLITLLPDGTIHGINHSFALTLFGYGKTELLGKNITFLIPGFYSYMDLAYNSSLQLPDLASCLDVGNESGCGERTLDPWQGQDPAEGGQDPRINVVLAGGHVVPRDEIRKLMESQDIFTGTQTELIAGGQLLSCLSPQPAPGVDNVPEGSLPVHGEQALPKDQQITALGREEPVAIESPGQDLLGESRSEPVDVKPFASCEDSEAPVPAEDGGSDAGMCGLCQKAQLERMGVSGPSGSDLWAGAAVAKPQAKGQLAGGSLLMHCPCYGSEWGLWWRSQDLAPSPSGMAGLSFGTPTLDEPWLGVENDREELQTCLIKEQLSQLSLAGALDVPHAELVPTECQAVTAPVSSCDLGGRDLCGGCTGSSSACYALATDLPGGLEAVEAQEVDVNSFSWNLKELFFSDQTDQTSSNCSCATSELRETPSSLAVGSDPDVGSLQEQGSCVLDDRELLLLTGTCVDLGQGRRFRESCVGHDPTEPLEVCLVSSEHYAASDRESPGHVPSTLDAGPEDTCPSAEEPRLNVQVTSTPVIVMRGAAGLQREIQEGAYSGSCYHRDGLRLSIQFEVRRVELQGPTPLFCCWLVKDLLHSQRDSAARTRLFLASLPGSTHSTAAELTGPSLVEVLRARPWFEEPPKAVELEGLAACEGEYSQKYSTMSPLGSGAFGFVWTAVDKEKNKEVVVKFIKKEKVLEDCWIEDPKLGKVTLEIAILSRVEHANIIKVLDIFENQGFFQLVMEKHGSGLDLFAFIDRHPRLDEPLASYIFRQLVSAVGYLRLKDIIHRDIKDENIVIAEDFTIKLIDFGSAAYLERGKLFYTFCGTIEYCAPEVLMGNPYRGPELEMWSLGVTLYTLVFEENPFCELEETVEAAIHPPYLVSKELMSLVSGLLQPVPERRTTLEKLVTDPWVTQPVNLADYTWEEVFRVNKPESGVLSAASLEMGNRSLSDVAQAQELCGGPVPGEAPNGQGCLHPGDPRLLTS

[3] = target: Fibroblast growth factor receptor 4 (Homo sapiens) (UniProt P22455); assay: Inhibition of human FGFR4 at 18.6 nM by HotSpot assay relative to control
Chain of Fibroblast growth factor receptor 4 (Homo sapiens) (P22455 22-802 limits assumed): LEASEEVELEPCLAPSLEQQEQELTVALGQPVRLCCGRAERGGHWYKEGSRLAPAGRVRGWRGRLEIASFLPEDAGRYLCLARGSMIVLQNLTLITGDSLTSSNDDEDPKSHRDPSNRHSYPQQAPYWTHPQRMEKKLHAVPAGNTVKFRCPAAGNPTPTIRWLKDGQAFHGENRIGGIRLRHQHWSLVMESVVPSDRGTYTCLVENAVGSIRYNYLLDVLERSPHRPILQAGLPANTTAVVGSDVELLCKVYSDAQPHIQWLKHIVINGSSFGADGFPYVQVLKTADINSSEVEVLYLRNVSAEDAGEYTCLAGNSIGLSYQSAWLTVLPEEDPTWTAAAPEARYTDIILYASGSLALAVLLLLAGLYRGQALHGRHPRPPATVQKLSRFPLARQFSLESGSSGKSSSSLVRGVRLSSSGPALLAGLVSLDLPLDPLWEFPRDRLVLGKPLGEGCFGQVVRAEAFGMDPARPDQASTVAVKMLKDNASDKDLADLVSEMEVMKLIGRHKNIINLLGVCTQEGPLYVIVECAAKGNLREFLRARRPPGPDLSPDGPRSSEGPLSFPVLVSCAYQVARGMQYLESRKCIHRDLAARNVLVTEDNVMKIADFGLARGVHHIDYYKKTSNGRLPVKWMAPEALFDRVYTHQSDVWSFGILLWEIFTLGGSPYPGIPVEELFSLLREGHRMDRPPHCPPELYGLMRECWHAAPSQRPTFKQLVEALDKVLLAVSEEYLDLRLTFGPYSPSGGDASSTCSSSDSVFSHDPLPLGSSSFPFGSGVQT

[4] = target: T2, Serine/threonine-protein kinase Chk1 (Homo sapiens) (UniProt O14757); assay: Inhibition of human CHK1 at 18.6 nM by HotSpot assay relative to control
T2 sequence (whole entry): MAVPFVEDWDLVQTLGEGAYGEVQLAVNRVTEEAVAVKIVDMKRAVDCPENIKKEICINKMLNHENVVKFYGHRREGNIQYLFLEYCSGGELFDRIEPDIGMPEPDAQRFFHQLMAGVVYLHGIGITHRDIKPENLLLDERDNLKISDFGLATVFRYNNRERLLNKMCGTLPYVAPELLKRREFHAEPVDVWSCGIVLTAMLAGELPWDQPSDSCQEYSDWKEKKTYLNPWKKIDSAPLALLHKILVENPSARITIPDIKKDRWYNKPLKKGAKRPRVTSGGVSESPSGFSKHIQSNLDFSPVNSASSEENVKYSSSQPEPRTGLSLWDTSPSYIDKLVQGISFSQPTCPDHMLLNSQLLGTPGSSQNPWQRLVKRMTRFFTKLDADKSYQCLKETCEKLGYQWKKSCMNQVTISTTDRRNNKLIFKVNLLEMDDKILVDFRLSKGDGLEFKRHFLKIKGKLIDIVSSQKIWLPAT

[5] = target: Glycogen synthase kinase-3 beta (Homo sapiens) (UniProt P49841); assay: Inhibition of human GSK3b at 18.6 nM by HotSpot assay relative to control
Chain of Glycogen synthase kinase-3 beta (Homo sapiens) (P49841 whole entry, looked up): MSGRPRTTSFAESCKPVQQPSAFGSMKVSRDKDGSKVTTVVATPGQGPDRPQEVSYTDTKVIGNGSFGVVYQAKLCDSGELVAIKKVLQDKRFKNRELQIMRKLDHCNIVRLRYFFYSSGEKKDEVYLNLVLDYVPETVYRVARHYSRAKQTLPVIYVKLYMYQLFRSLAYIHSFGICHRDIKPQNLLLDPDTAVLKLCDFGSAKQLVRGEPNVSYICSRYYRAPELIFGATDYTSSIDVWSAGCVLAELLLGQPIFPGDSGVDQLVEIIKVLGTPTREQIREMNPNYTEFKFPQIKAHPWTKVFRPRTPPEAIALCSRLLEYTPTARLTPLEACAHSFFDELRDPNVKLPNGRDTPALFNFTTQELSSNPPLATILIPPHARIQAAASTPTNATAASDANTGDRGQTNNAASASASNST

[6] = target: Receptor-type tyrosine-protein kinase FLT3 (Homo sapiens) (UniProt P36888); assay: Inhibition of human FLT3 at 18.6 nM by HotSpot assay relative to control
[7] = target: Serine/threonine-protein kinase PAK 3 (Homo sapiens) (UniProt O75914); assay: Inhibition of human PAK3 at 18.6 nM by HotSpot assay relative to control
Chain of Serine/threonine-protein kinase PAK 3 (Homo sapiens) (O75914 whole entry, looked up): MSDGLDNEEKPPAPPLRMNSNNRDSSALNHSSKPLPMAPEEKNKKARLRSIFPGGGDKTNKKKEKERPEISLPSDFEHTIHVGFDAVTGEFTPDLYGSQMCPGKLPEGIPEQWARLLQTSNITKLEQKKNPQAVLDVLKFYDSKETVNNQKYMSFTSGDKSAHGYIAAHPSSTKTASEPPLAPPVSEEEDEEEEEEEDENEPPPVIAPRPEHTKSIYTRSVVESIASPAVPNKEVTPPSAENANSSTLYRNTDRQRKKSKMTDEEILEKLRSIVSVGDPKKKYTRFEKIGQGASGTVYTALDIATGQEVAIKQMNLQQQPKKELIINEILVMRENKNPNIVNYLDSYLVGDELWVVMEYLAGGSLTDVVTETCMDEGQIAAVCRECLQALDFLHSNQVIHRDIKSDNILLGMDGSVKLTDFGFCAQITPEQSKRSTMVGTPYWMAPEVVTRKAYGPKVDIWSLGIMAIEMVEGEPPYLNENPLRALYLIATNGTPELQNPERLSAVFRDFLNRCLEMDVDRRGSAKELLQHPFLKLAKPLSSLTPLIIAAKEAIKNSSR

[8] = target: Dual specificity protein kinase CLK4 (Homo sapiens) (UniProt Q9HAZ1); conditions: dose 1.82 nM
Chain of Dual specificity protein kinase CLK4 (Homo sapiens) (Q9HAZ1 whole entry, looked up): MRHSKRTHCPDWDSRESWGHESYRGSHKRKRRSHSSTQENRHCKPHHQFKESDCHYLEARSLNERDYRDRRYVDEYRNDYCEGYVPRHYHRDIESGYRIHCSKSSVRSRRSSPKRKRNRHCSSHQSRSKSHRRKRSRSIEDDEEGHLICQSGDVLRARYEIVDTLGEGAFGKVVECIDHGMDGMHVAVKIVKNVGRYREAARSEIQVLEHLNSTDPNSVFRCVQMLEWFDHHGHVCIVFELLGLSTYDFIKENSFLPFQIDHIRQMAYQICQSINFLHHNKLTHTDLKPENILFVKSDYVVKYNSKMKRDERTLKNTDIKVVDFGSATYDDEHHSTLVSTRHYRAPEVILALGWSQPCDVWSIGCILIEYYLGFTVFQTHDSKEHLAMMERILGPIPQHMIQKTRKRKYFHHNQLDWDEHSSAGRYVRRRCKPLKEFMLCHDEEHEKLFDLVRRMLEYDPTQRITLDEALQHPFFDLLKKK
Description: Inhibition of human CLK4 at 1.82 nM by HotSpot assay relative to control

[9] = target: T3, Ephrin type-A receptor 1 (Homo sapiens) (UniProt P21709); assay: Inhibition of human EPHA1 at 1.82 nM by HotSpot assay relative to control
T3 sequence (whole entry): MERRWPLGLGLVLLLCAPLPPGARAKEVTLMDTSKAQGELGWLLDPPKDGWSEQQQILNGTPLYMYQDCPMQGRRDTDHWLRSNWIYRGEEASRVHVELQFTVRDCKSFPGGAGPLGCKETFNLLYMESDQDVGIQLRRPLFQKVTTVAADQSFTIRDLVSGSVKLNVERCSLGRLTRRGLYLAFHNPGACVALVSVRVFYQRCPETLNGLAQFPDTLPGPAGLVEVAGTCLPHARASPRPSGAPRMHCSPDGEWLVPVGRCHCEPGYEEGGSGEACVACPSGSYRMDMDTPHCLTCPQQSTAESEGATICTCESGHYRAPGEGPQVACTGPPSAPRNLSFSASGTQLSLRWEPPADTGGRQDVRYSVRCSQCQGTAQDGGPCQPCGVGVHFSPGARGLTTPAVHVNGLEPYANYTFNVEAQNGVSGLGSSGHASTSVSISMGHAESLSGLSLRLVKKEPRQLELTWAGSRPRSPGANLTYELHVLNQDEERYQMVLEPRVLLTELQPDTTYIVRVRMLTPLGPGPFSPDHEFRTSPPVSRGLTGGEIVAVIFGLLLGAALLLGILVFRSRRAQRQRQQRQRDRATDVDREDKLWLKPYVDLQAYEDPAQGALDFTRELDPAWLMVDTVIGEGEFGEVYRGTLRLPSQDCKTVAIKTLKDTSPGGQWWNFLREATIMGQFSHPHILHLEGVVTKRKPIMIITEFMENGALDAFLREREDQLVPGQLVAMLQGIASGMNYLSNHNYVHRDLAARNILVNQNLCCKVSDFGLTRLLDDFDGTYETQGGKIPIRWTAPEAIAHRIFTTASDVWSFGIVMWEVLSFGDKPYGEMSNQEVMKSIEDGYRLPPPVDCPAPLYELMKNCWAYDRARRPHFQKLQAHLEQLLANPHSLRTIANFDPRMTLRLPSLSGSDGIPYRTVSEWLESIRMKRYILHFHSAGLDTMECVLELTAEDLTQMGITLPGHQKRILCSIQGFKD

[10] = target: Protein kinase C gamma type (Homo sapiens) (UniProt P05129); assay: Inhibition of human PKCg at 1.82 nM by HotSpot assay relative to control
[11] = target: Epidermal growth factor receptor (Homo sapiens) (UniProt P00533); assay: Inhibition of human EGFR at 1.82 nM by HotSpot assay relative to control
[12] = target: Mitogen-activated protein kinase kinase kinase 20 (Homo sapiens) (UniProt Q9NYL2); assay: Inhibition of human MLTK at 1.82 nM by HotSpot assay relative to control
Chain of Mitogen-activated protein kinase kinase kinase 20 (Homo sapiens) (Q9NYL2 2-800 limits assumed): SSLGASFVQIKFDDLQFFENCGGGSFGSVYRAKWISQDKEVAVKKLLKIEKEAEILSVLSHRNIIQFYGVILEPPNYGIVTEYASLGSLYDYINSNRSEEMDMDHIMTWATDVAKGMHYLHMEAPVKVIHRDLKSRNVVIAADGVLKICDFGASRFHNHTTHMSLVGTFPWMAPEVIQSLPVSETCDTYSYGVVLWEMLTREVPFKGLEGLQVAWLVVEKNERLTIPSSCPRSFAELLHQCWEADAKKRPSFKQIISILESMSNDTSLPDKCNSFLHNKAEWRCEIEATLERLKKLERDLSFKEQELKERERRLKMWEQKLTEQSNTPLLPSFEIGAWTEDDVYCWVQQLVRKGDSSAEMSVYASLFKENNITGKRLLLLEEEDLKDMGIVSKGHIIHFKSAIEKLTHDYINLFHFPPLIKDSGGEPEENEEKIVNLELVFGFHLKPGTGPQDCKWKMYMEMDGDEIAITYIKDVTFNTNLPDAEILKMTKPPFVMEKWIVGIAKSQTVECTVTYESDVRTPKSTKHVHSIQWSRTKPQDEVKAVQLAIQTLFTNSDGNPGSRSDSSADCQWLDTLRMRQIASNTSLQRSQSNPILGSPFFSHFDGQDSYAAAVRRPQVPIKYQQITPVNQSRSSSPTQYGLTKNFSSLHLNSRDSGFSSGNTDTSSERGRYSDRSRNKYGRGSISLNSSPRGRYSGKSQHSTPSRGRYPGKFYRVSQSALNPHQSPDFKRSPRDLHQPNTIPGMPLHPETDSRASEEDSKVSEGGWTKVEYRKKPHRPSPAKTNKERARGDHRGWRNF

[13] = target: Cyclin-dependent kinase 7/ cyclin H (Homo sapiens) (UniProt P51946+P50613); assay: Inhibition of human CDK7/cyclin H at 1.82 nM by HotSpot assay relative to control; format: protein-complex assay

SMILES: Nc1n[nH]c2nnc(-c3c(-c4ccccc4)nn4ccccc34)cc12
inhibition [1]: 16.1%

inhibition [2]: -4.72%
inhibition [3]: 9%
inhibition [4]: -5.11%
inhibition [5]: 67.1%
inhibition [6]: -4.3%
inhibition [7]: 2.16%
SMILES: C[C@]1(O)C[C@@H](c2nc(-c3ccc4ccc(-c5ccccc5)nc4c3)c3c(N)nccn32)C1

inhibition [8]: -10%
inhibition [9]: -4.67%
inhibition [10]: -7.52%
inhibition [11]: -6.78%
inhibition [12]: 2.09%
inhibition [13]: -3.28%
SMILES: C[C@@]1(C(=O)Nc2ccc(F)nc2)CCCN1c1nc(Nc2cc(C3CC3)n[nH]2)c2cccn2n1
